According to patent publication US20220175761A1, “BI-LIGAND DRUG CONJUGATE AND USE THEREOF” (COHERENT BIOPHARMA (SUZHOU), LIMITED, priority 2019, published 2022):
Numbered stars: 1 amine (or outer) side, 2 acyl side, 3 side chain; on linkers, the order of the positions; unused ones are H or OH. Bridge positions count the residues as written; N and C are the ends. Square brackets hold non-standard residues; d marks the D form. Peptide text beside a SMILES is read from it. I, II: the chains in the order shown. * marks the point of attachment. ξ: configuration not given here. X5 = CCc1c2c(nc3ccc(O)cc13)-c1cc3c(c(=O)n1C2)COC(=O)[C@@]3(CC)OC(=O)OCc1ccc(NC(=O)COCC(=O)*)cc1; Hexanoyl(6-succinimido-3yl) = O=C1CC([*:1])C(=O)N1CCCCCC(=O)[*:2]; X4 = O=C([C@H](Cc1cnnn1CCOCCOCCOCCOCCOCCN[*:3])N[*:1])[*:2]; EuK = O=C(O)CC[C@H](NC(=O)N[C@@H](CCCCN*)C(=O)O)C(=O)O; Pteroyl = Nc1nc2ncc(CNc3ccc(C(=O)*)cc3)nc2c(=O)[nH]1; Dolaproine = CO[C@@H]([C@@H]1CCCN1)[C@@H](C)C(=O)O; Dil = CC[C@H](C)[C@H](NC)[C@@H](CC(=O)O)OC; γGlu = O=C(O)[C@H](CCC(=O)[*:2])N[*:1]; PABC = O=C(OCc1ccc(N[*:1])cc1)[*:2]; X1 = C[C@@H](N*)[C@@H](O)c1ccccc1; X2 = O=C(Cc1ccc(CN[*:1])cc1)[*:2]; PEG4 = NCCOCCOCCOCCOCCC(=O)O; NMeV = CN[C@H](C(=O)O)C(C)C; ξCit = NC(=O)NCCCC(N)C(=O)O; CO = O=C([*:1])[*:2]; ξV = CC(C)C(N)C(=O)O; Butyryl = CCCC(=O)*; Ahx = NCCCCCC(=O)O

Columns and labels:
[1] = tested on: KB, LNCaP, T-47D, RT4 and NCI-H460 tumor cell lines; assay: Inhibition of tumor cell expansion, CCK8 (CB-50S); format: cell-based, human
Protocol: Cell lines: KB human oral epidermoid carcinoma cells, NCI-H460 human lung cancer cells, RT4 human bladder cancer cells, T-47D human breast cancer cells and LNCaP human prostate cancer cells
The cells were prepared in advance, digested with trypsin, collected and counted; with a complete cell culture medium, KB cells were diluted to 3.5×10^4 cells/ml, LNCaP cells were diluted to 8.0×10^4 cells/ml, T-47D cells were diluted to 1.2×10^4 cells/ml, NCI-H460 cells were diluted to 2.5×10^4 cells/ml, and RT4 cells were diluted to 1.2×10^5 cells/ml; to each well of 96-well plates, 100 μl of the diluted cell solution was added; and negative control and blank control wells were set on each plate. The 96-well plates added with the cells were placed in an incubator at 37° C., 5% CO2 for culturing overnight.
The samples were diluted with a culture medium to desired concentrations (see Table 16). […]
To each well, 15 μl (10% of the liquid volume in a well) of a color developing solution from CCK-8 was added; the plates were incubated at 37° C. for an appropriate time (try to keep the OD value in the range of 1.0-2.0); the covers of the 96-well plates were removed, and the plates were read at 450 nm on a microplate reader (Molecular Devices Spectra MAX Plus). […]

[2] = tested on: MDA-MB-468 (human breast cancer cells); assay: Inhibition of cell line proliferation, CCK8; format: cell-based
Protocol: (§1) Experimental Operations: LNCaP, SK-BR-3, MDA-MB-468 and CFPAC-1 cells were prepared in advance and counted; with a culture medium (IMDM+10% FBS+1× L-Glutamine+1×P/S), the cells LNCaP, SK-BR-3, MDA-MB-468 and CFPAC-1 were diluted to 4×10^4 cells/ml; the diluted cell solution was plated in 96-well plates at 100 µl/well; and negative control and blank control wells were set on each plate. After adherent cell culture overnight, the diluted samples to be tested were added at 50 μl/well. The plates were placed in an incubator at 37° C., 5% CO2 and cultured for 68-72 hours. To each well, 15 μl (10% of the liquid volume in a well) of a color developing solution from CCK8 was added; and the plates were incubated at 37° C. for 45-70 minutes and each plate was read at 450 nm on a microplate reader. The data was edited using SoftMax Pro and a 4-P fitting curve was plotted.
as §1, with “Operations: LNCaP, MDA-MB-468, CFPAC-1 and PANC-1” for “Operations: LNCaP, SK-BR-3, MDA-MB-468 and CFPAC-1”, “CFPAC-1 and PANC-1 cells were” for “MDA-MB-468 and CFPAC-1 cells were”, “cells LNCaP, MDA-MB-468 and” for “cells LNCaP, SK-BR-3, MDA-MB-468 and”, “to 4×10^4 cells/ml, and PANC-1 was diluted to 3.0×10^4 cells/ml; the” for “to 4×10^4 cells/ml; the”, “at 100 μl/well; and negative” for “at 100 µl/well; and negative”
Experimental operations: NCI-H226, CFPAC-1 and MDA-MB-468 cells were prepared in advance and counted; MDA-MB-468 and CFPAC-1 cells were plated at a density of 2×10^4 cells/ml (100 μl/well) and NCI-H226 cells were plated at a density of 1×10^4 cells/ml (100 μl/well) in 96-well plates; and negative control and blank control wells were set on each plate. After adherent cell culture overnight, the diluted samples to be tested were added at 50 μl/well. The plates were placed in an incubator at 37° C., 5% CO2 and cultured for 68-72 hours. To each well, 15 μl (10% of the liquid volume in a well) of a color developing solution from CCK8 was added; and the plates were incubated at 37° C. for 45-70 minutes and each plate was read at 450 nm on a microplate reader. The data was edited using SoftMax Pro and a 4-P fitting curve was plotted.

[3] = tested on: SCLC-21H (small cell lung cancer cells); assay: Tumor growth inhibition in subcutaneous xenograft model (CDX); format: in vivo, BALB/c-nude mice; details: SCLC-21H CDX
Protocol: Main CDX models: HPAF-II (human pancreatic cancer cells), NCI-H226 (human lung cancer cells) and SCLC-21H (small cell lung cancer cells)
The cells or tumor tissue mass were prepared and subcutaneously inoculated into the anterior right flank of BALB/c-nude mice. When the tumor volume expanded to 80-160 mm^3, a randomized grouping was performed, and a model control group and administration groups were set. The mice were administrated from the first day of grouping, wherein the administration dose was adjusted according to the latest weight measurement. The mice were administrated via tail vein injection at an administration volume of 10 μl/g. After grouping and administration, the effects of tumor growth and treatment on normal behaviors of animals, specifically including the activity of experimental animals, food intake and drinking status, weight gain or loss status, and other abnormal conditions in eyes, hair, etc., were monitored. After grouping and administration, the weight of mice was measured twice a week to calculate the rate of weight change; at the same time, the long diameter and short diameter of the tumor were measured with a vernier caliper, and the tumor volume, relative tumor proliferation rate, tumor volume inhibition rate and other indicators were calculated. The formula of tumor volume is TV=0.5 a×b^2, wherein a is […] the long diameter of a tumor and b is the short diameter of a tumor.

[4] = tested on: PANC-1 (human pancreatic cancer cells); assay: Inhibition of cell line proliferation, CCK8; format: cell-based
Protocol: (§2) Experimental operations: PANC-1 and CFPAC-1 cells were prepared in advance, counted, and plated in 96-well cell culture plates at a cell density of 4×10^4 cells/ml (100 μl/well); negative control and blank control wells were set on each plate. After adherent cell culture overnight, the diluted samples to be tested were added at 50 μl/well. The plates were placed in an incubator at 37° C., 5% CO2 and cultured for 68-72 hours. To each well, 15 μl (10% of the liquid volume in a well) of a color developing solution from CCK8 was added; and the plates were incubated at 37° C. for 45-70 minutes and each plate was read at 450 nm on a microplate reader. The data was edited using SoftMax Pro and a 4-P fitting curve was plotted.
(§3) Experimental operations: LNCaP, SK-BR-3, NCI-H226, CFPAC-1 and PANC-1 cells were prepared in advance and counted; with a culture medium (IMDM+10% FBS+1× L-Glutamine+1×P/S), the cells LNCaP, SK-BR-3 and CFPAC-1 were diluted to 4×10^4 cells/ml, NCI-H226 was diluted to 2.0×10^4 cells/ml and PANC-1 was diluted to 3.0×10^4 cells/ml; the diluted cell solution was plated in 96-well plates at 100 μl/well; and negative control and blank control wells were set on each plate. After adherent cell culture overnight, the diluted samples to be tested were added at 50 μl/well. The plates were placed in an incubator at 37° C., 5% CO2 and cultured for 68-72 hours. To each well, 15 μl (10% of the liquid volume in a well) of a color developing solution from CCK8 was added; and the plates were incubated at 37° C. for 45-70 minutes and each plate was read at 450 nm on a microplate reader. The data was edited using SoftMax Pro and a 4-P fitting curve was plotted.
as §1, with “Operations: LNCaP, MDA-MB-468, CFPAC-1 and PANC-1” for “Operations: LNCaP, SK-BR-3, MDA-MB-468 and CFPAC-1”, “CFPAC-1 and PANC-1 cells were” for “MDA-MB-468 and CFPAC-1 cells were”, “cells LNCaP, MDA-MB-468 and” for “cells LNCaP, SK-BR-3, MDA-MB-468 and”, “to 4×10^4 cells/ml, and PANC-1 was diluted to 3.0×10^4 cells/ml; the” for “to 4×10^4 cells/ml; the”, “at 100 μl/well; and negative” for “at 100 µl/well; and negative”

[5] = tested on: LNCaP (human prostate cancer cells); assay: Inhibition of cell line proliferation, CCK8; format: cell-based; details: LNCaP
Excerpt: Since different cells have different sensitivity to a cell proliferation inhibitory toxicity of the payload in a ligand conjugate, the quantitative analysis may be interfered occasionally. A series of cell lines with known expression levels of receptors of different ligands were selected and tested for the response to inhibitory effects of the cell proliferation of a ligand conjugate and a single payload. The IC50 ratio of a single payload to that of a ligand conjugate in same cell line were taken to remove such interference.
as §2, with “LNCaP” for “PANC-1”, “22RV1” for “CFPAC-1”, “cells/ml and 2.0×10^4 cells/ml, respectively” for “cells/ml”, “plotted. […]” for “plotted.”

[6] = tested on: CFPAC-1 (human pancreatic cancer cells); assay: Inhibition of cell line proliferation, CCK8; format: cell-based
Protocol: as §2, §3, §1
as §1, with “Operations: LNCaP, MDA-MB-468, CFPAC-1 and PANC-1” for “Operations: LNCaP, SK-BR-3, MDA-MB-468 and CFPAC-1”, “CFPAC-1 and PANC-1 cells were” for “MDA-MB-468 and CFPAC-1 cells were”, “cells LNCaP, MDA-MB-468 and” for “cells LNCaP, SK-BR-3, MDA-MB-468 and”, “to 4×10^4 cells/ml, and PANC-1 was diluted to 3.0×10^4 cells/ml; the” for “to 4×10^4 cells/ml; the”, “at 100 μl/well; and negative” for “at 100 µl/well; and negative”
Experimental operations: NCI-H226, CFPAC-1 and MDA-MB-468 cells were prepared in advance and counted; MDA-MB-468 and CFPAC-1 cells were plated at a density of 2×10^4 cells/ml (100 μl/well) and NCI-H226 cells were plated at a density of 1×10^4 cells/ml (100 μl/well) in 96-well plates; and negative control and blank control wells were set on each plate. After adherent cell culture overnight, the diluted samples to be tested were added at 50 μl/well. The plates were placed in an incubator at 37° C., 5% CO2 and cultured for 68-72 hours. […]

SMILES | inhibitory effect on growth and expansion of tumor cell lines ([1]; 72 hours, CCK-8) | IC50 compared between cell lines ([1]; KB, LNcap, T-47D and RT4 versus NCI-H460) | IC50 (MMAE)/IC50 (conjugate) ([2]; MDA-MB-468) | IC50 ([2]; MDA-MB-468, 68-72 hours, CCK8) [nM] | anti-tumor growth effect (in words) [3] | IC50 (MMAE)/IC50 (conjugate) ([4]; PANC-1) | IC50 ([4]; PANC-1, 68-72 hours, CCK8) [nM] | IC50 ratio (MMAE/conjugate) [5] | IC50 ([5]; 68-72 hours, CCK8) [nM] | IC50 (MMAE)/IC50 (conjugate) ([6]; CFPAC-1) | IC50 ([6]; CFPAC-1, 68-72 hours, CCK8) [nM]
CCc1c2c(nc3ccc(O)cc13)-c1cc3c(c(=O)n1C2)COC(=O)[C@@]3(CC)OC(=O)OCc1ccc(NC(=O)COCC(=O)NCCOCCOCCOCCOCCOCCn2nncc2C[C@H](NC(=O)CC[C@H](NC(=O)c2ccc(NCc3cnc4[nH]c(N)nc(=O)c4n3)cc2)C(=O)O)C(=O)N[C@@H](CCCCN)C(=O)N[C@@H](CCC(=O)O)C(=O)N[C@@H](Cc2ccccc2)C(=O)N[C@@H](CC(C)C)C(=O)N[C@@H](Cc2cnc[nH]2)C(=O)N2CCC[C@H]2C(=O)N[C@@H](CO)C(=O)N[C@@H](CCCCN)C(=O)NC(C(=O)N[C@@H](CC(=O)O)C(=O)N[C@@H](CC(C)C)C(=O)N2CCC[C@H]2C(=O)N[C@@H](CCCNC(=N)N)C(=O)O)C(C)C)cc1 (some centres unmarked) [CB-50S] ({Pteroyl-γGlu}-[X4](X5)KEFLHPSK[ξV]DLPR-OH) | has an inhibitory effect | significantly lower |  |  |  |  |  |  |  |  | 
CCCC(=O)N[C@@H](Cc1ccccc1)C(=O)N[C@H]1CSSC[C@@H](C(=O)N[C@H](C(=O)N[C@@H](CCCCNC(=O)[C@H](CCC(=O)O)NC(=O)CCOCCOCCOCCOCCNC(=O)[C@H](CCC(=O)O)NC(=O)[C@H](CSC2CC(=O)N(CCCCCC(=O)N[C@H](C(=O)NC(CCCNC(N)=O)C(=O)Nc3ccc(COC(=O)N(C)[C@H](C(=O)N[C@H](C(=O)N(C)[C@@H]([C@@H](C)CC)[C@@H](CC(=O)N4CCC[C@H]4[C@H](OC)[C@@H](C)C(=O)N[C@H](C)[C@@H](O)c4ccccc4)OC)C(C)C)C(C)C)cc3)C(C)C)C2=O)NC(=O)CCCCCNC(=O)[C@H](CCCCN)NC(=O)[C@H](CC(=O)O)NC(=O)[C@H](CC(=O)O)NC(=O)Cc2ccc(CNC(=O)NCCCC[C@H](NC(=O)N[C@@H](CCC(=O)O)C(=O)O)C(=O)O)cc2)C(N)=O)[C@@H](C)O)NC(=O)[C@H]([C@@H](C)O)NC(=O)[C@H](CCCCN)NC(=O)[C@H](Cc2c[nH]c3ccccc23)NC(=O)[C@H](Cc2ccc(O)cc2)NC1=O (some centres unmarked) [CB-1820] (I: Butyryl-FCYWKTCTK-NH2 / II: {EuK-CO}-[X2]DDK[Ahx]CE[PEG4]E / III: V[ξCit][PABC][NMeV]V[Dil][Dolaproine]-X1; disulfide I:2-I:7; amide I:9-II:C; linker II:6-III:N via Hexanoyl(6-succinimido-3yl)) |  |  | 0.0323 | 62 | obvious anti-tumor growth effect | 0.0364 | 55 | 0.1429 | 21 | 0.0421 | 356
